{"source": "patent US8789785B2", "about": "“Device for micronization of solid materials and its use” (Lambano Trading Limited, priority 2010, dated 2014)", "assay": "bioavailability of the substance micronized with the device", "format": "in vivo", "settings": "after micronization with the device from the present invention", "from_the_text": "As an example of pharmaceutically active substance herein is mentioned anti-inflammatory substance alclometasone-17,21-dipropionate which was successfully micronized with the device from the present invention yielding the product of increased bioavailability.", "data": [{"smiles": "CCC(=O)OCC(=O)[C@@]1(OC(=O)CC)[C@H](C)C[C@H]2[C@H]3[C@H]([C@@H](O)C[C@@]21C)[C@@]1(C)C=CC(=O)C=C1C[C@H]3Cl", "note": "[alclometasone-17,21-dipropionate]", "values": [{"measurement": "bioavailability of the micronized product", "result": "increased"}]}]}
